The series can be described thus: toxicity (comparative statement, no method given). The conditions noted are these: in comparison to CF3CH═CF2 (HFO-1225zc).

In the case of `FC=C(F)C(F)(F)F` [HFO-1225yez, 1,1,1,2,3 pentafluoropropene], the degree of toxicity result was “relatively low degree of toxicity”.

The values above are taken from patent US8637443B2, “Cleaning compositions and methods comprising a hydrofluoro-olefin or hydrochlorofluoro-olefin solvent” (Honeywell International Inc., priority 2008, dated 2014).
